Assay results: US20050282757A1, “Peptide boronic acid compounds useful in anticoagulation” (Trigen Limited, priority 2002, published 2005)
Converted amounts (≈) assume the structure as drawn. “And” between values parts separate entries of the source, which are not always exact repeats. Equal values may be shown once. “Also recorded” adds a separate entry of the source.

Experiments:
thrombin time [1] = test: Intraduodenal absorption in rat, thrombin time (Examples 42 and 44); type: in vivo, male Wistar rats; parameters: Mean increase in thrombin time / Thrombin time increase: unit not given here; details: for Group mean thrombin time (s ± sd): 20 mg/kg intraduodenal
Description: • Place 10 mg of the relevant compound in an Eppendorf cup • Add 0.5 mL ethanol and shake for 10 minutes • Sonicate for 10 minutes • Add 1.5 mL of buffer • Shake for additional 15 minutes • Resulting target concentration: 5 mg/mL B. Intraduodenal Studies
The intraduodenal studies were performed using male Wistar rats, approximately 8 weeks of age and weighing between 250 and 300 g.
Food was withheld overnight prior to dosing and returned approximately 2 hours post-dose. Water was available ad libitum.
Animals were anaesthetised using gaseous halothane. A small incision was made in the abdomen and the duodenum located. Each animal received a single administration of control or test article by injection directly into the duodenum, using a constant dose volume of 4 mL/kg. Following administration the incision was closed using surgical staples.
Individual dose volumes were based on individual body weights, obtained on the day of dosing. Treatments employed for the study were as follows:
(§1) Approximately 0.6 mL of blood was collected via a tail vein into 3.8% tri sodium citrate tubes approximately 48 hours prior to dosing and again at 0.5, 1, 2, 4 and 8 hours post-dose.
(§2) Plasma was prepared by centrifugation at […] for 10 minutes at 4° C. Plasma was stored frozen (nominally −20° C.) prior to analysis in an automated coagulometer.
The thrombin times determined in example 42 were analysed to determine the standard deviation for increase in thrombin time, expressed as a percentage of the mean value (this is sometimes called the ‘coefficient of variation’).

thrombin time [2] = test: Oral absorption in rat, thrombin time (Example 43); type: in vivo, male Wistar rats; details: 20 mg/kg oral gavage
Description: The procedure of Example 42 was followed.
The per-oral studies were performed using male Wistar rats, approximately 8 weeks of age and weighing between 250 and 300 g.
Food was withheld overnight prior to dosing and returned approximately 2 hours post-dose. Water was available adlibitum.
Each animal received a single administration of control or test article by oral gavage, using a constant dose volume of 4 mL/kg.
Individual dose volumes were based on individual body weights, obtained on the day of dosing.
as §1, §2

[3] = Stability in simulated gastric fluid (Example 51); type: in vitro ADME; details: 37° C.
Description: Approximately 2.5 mg of the compound is dissolved in 50 ml gastric fluid (37° C., according to BP with pepsin, an aliquot is transferred into an HPLC-vial and analysed immediately (time period =0). The aliquots for further time periods in HPLC-vials are stored in an autosampler at 37° C. […]

[4] = Maximum aqueous solubility by UV after shaking in water at 37° C.; type: physicochemical; details: read-out: Solubility when dissolved at 50 mg/ml
thrombin time and APTT = test: Oral administration in dog, PK/PD (Example 45)
Description: Three female and three male dogs were used for each leg of the study. The weight range of the dogs was 8-18 kg.
The PD was measured as thrombin time and APTT using an automated coagulometer. Plasma concentrations were measured using an LCMS/MS method.
The dose was tailored on an individual basis for each dog.

[5] = Hydrolysis under HPLC assay conditions; type: physicochemical; details: acid conditions of an HPLC assay / HPLC sample preparation
Source text: It has been discovered that TRI 50b tends to hydrolyse.

[6] = gastric juice 0 min, initial set to 100
[7] = individual rats dosed intraduodenally, in s

In the case of `COCCC[C@H](NC(=O)[C@@H]1CCCN1C(=O)[C@@H](Cc1ccccc1)NC(=O)OCc1ccccc1)B([O-])O.[K+]` [Potassium Salt of TRI50C], the “Group mean thrombin time (s ± sd)” value (thrombin time [1]; 0.5 hour) is reported as 26.5 ± 3.64 s, the “Group mean thrombin time (s ± sd)” value (thrombin time [1]; 1 hour) is reported as 24.4 ± 3.35 s and the “Group mean thrombin time (s ± sd)” value (thrombin time [1]; 2 hour) is reported as 23.2 ± 0.83 s. The “Group mean thrombin time (s ± sd)” value (thrombin time [1]; 4 hour) was 23.2 ± 2.36 s, the “Group mean thrombin time (s ± sd)” value (thrombin time [1]; 8 hour) was 21.6 ± 0.70 s and the “Group mean thrombin time (s ± sd)” value (thrombin time [1]; −48 hour (pre-dose)) was 20.0 ± 1.92 s. The “Group mean thrombin times (s ± sd)” value (thrombin time [2]; 0.5 hour) was 24.7 ± 2.18 s, the “Group mean thrombin times (s ± sd)” value (thrombin time [2]; 1 hour) was 24.1 ± 1.87 s and the “Group mean thrombin times (s ± sd)” value (thrombin time [2]; 2 hour) was 22.9 ± 3.29 s. For the same compound, the “Group mean thrombin times (s ± sd)” value (thrombin time [2]; 4 hour) was 23.2 ± 1.24 s, the “Group mean thrombin times (s ± sd)” value (thrombin time [2]; 8 hour) was 23.8 ± 1.79 s and the “Group mean thrombin times (s ± sd)” value (thrombin time [2]; −48 hour (pre-dose)) was 22.0 ± 1.40 s.
For `COCCC[C@H](NC(=O)[C@@H]1CCCN1C(=O)[C@@H](Cc1ccc(F)cc1)NC(=O)OCc1ccccc1)B([O-])O.[Na+]` [TRIf monosodium salt], the “results, peak at rt 14.5 min” value [3, 6] was 100.0 peak-area-%, the “results, peak at rt 17.3 min” value [3, 6] was 100.0 peak-area-% and the “results, peak at rt […]” value [3, 6] was 100.0 peak-area-%. The “results, peak at rt 14.5 min” value ([3]; gastric juice 35 min) was 89.6 peak-area-%, the “results, peak at rt 17.3 min” value ([3]; gastric juice 35 min) was 99.1 peak-area-% and the “results, peak at rt […]” value ([3]; gastric juice 35 min) was 101.4 peak-area-%. The “results, peak at rt 14.5 min” value ([3]; gastric juice 70 min) was 84.6 peak-area-%, the “results, peak at rt 17.3 min” value ([3]; gastric juice 70 min) was 101.8 peak-area-% and the “results, peak at rt […]” value ([3]; gastric juice 70 min) was 101.1 peak-area-%. The “results, peak at rt 14.5 min” value ([3]; gastric juice 105 min) was 94.2 peak-area-%, the “results, peak at rt 17.3 min” value ([3]; gastric juice 105 min) was 100.3 peak-area-% and the “results, peak at rt […]” value ([3]; gastric juice 105 min) was 97.7 peak-area-%. The “results, peak at rt 14.5 min” value ([3]; gastric juice 140 min) was 93.9 peak-area-%, the “results, peak at rt 17.3 min” value ([3]; gastric juice 140 min) was 91.4 peak-area-% and the “results, peak at rt […]” value ([3]; gastric juice 140 min) was 94.6 peak-area-%. The “results, peak at rt 14.5 min” value ([3]; gastric juice 175 min) was 94.9 peak-area-%, the “results, peak at rt 17.3 min” value ([3]; gastric juice 175 min) was 97.7 peak-area-% and the “results, peak at rt […]” value ([3]; gastric juice 175 min) was 98.6 peak-area-%. The “results, peak at rt 14.5 min” value ([3]; gastric juice 210 min) was 98.1 peak-area-%, the “results, peak at rt 17.3 min” value ([3]; gastric juice 210 min) was 94.1 peak-area-% and the “results, peak at rt […]” value ([3]; gastric juice 210 min) was 94.4 peak-area-%.
With `COCCC[C@H](NC(=O)[C@@H]1CCCN1C(=O)[C@@H](Cc1ccccc1)NC(=O)OCc1ccccc1)B(O)O` [TRI 50c, Cbz-(R)-Phe-(S)-Pro-(R)-Mpg-B(OH)2] the solubility [4] was 8 mM (≈ 4200 µg/mL), the “Group mean thrombin time (s ± sd)” value (thrombin time [1]; 0.5 hour) was 42.1 ± 19.54 s and the “Group mean thrombin time (s ± sd)” value (thrombin time [1]; 1 hour) was 27.5 ± 9.42 s. The “Group mean thrombin time (s ± sd)” value (thrombin time [1]; 2 hour) was 23.5 ± 6.40 s, the “Group mean thrombin time (s ± sd)” value (thrombin time [1]; 4 hour) was 21.8 ± 2.33 s and the “Group mean thrombin time (s ± sd)” value (thrombin time [1]; 8 hour) was 21.5 ± 2.67 s. For the same compound, the “Group mean thrombin time (s ± sd)” value (thrombin time [1]; −48 hour (pre-dose)) was 21.3 ± 2.69 s, the “Mean increase in thrombin time” value (thrombin time [1]; 0.5 h minus 0 h, intraduodenal) was 20.26 and the “Thrombin time, 0 h” value (thrombin time [1]; [7]) was 23.70 and 23.10 and 16.85 and 21.67. For the same compound, the “Thrombin time, 0.5 h” value (thrombin time [1]; [7]) was 40.02 and 40.20 and 23.60 and 62.55, the Thrombin time increase (thrombin time [1]; individual rats, 0.5 h minus 0 h) was 16.32 and 17.10 and 6.75 and 40.88 and the “Group mean thrombin times (s ± sd)” value (thrombin time [2]; 0.5 hour) was 26.8 ± 1.96 s. The “Group mean thrombin times (s ± sd)” value (thrombin time [2]; 1 hour) was 23.3 ± 3.68 s, the “Group mean thrombin times (s ± sd)” value (thrombin time [2]; 2 hour) was 23.9 ± 2.25 s and the “Group mean thrombin times (s ± sd)” value (thrombin time [2]; 4 hour) was 23.1 ± 2.70 s. For the same compound, the “Group mean thrombin times (s ± sd)” value (thrombin time [2]; 8 hour) was 25.1 ± 0.33 s, the “Group mean thrombin times (s ± sd)” value (thrombin time [2]; −48 hour (pre-dose)) was 22.9 ± 2.28 s and the “absorption as estimated by dynamic response (TT)” value (thrombin time and APTT) was “Two animals failed to significantly absorb TRI 50c”. For the same compound, the “time of peak thrombin time post dose” value (thrombin time and APTT) was 1.5 h, the “mean thrombin clotting time at peak (C max)” value (thrombin time and APTT; base line 15 seconds (calcium salt), 15.4 seconds (TRI 50c)) was 34.2 s and the tolerance (thrombin time and APTT; enterically coated gelatine capsules) was “tolerated well with no adverse events; also recorded: well tolerated orally”.
With `COCCC[C@H](NC(=O)[C@@H]1CCCN1C(=O)[C@@H](Cc1ccccc1)NC(=O)OCc1ccccc1)B1OC(C)(C)C(C)(C)O1` [TRI 50b, Cbz-(R)-Phe-Pro-BoroMpg-OPinacol] the “stability under HPLC assay conditions” value [5] was “converted to the acid form with a short half life”.
